Tests used:
[1] = Elimination half life in Balb/c mouse at 50 mg/kg, po measured upto 24 hrs by LC/MS/MS analysis; format: ADME, organism-based; details: in vivo, read-out: beta t1/2 (converted)
[2] = AUC (0 to t) in Balb/c mouse at 50 mg/kg, po measured upto 24 hrs by LC/MS/MS analysis; format: ADME, organism-based; design: dose 50 mg/kg, time < 24 hrs, route po; details: Balb/c, in vivo
[3] = Apparent permeability across basolateral to apical side in human Caco-2 cells incubated for 21 days; format: ADME, cell-based; details: time 21 day
[4] = Aqueous solubility of compound by HPLC-PDA method; format: physicochemical; details: buffer; read-out: solubility
[5] = Oral bioavailability in Balb/c mouse at 50 mg/kg measured upto 24 hrs by LC/MS/MS analysis; format: ADME, organism-based; details: Balb/c, in vivo
[6] = Tmax in Balb/c mouse at 50 mg/kg, po measured upto 24 hrs by LC/MS/MS analysis; format: ADME, organism-based; details: in vivo
[7] = AUC (0 to t) in Balb/c mouse at 5 mg/kg, iv measured upto 24 hrs by LC/MS/MS analysis; format: ADME, organism-based; design: time < 24 hrs, dose 5 mg/kg, route iv; details: Balb/c, in vivo
[8] = Cmax in Balb/c mouse at 50 mg/kg, po measured upto 24 hrs by LC/MS/MS analysis; format: ADME, organism-based; design: time < 24 hrs, dose 50 mg/kg, route po; details: in vivo
[9] = Chemical stability of the compound under 60 degree C high temperature by measuring compound purity incubated for 10 days by HPLC-PDA method analysis relative to initial purity; format: physicochemical; details: time 10 day; for Stability: 240 h
[10] = Efflux ratio of apparent permeability across basolateral to apical side over apical to basolateral side in human Caco-2 cells; format: ADME, cell-based
[11] = Elimination half life in Balb/c mouse at 5 mg/kg, iv measured upto 24 hrs by LC/MS/MS analysis; format: ADME, organism-based; details: in vivo, read-out: beta t1/2 (converted)
[12] = Chemical stability of the compound under 92.5% humidity by measuring compound purity incubated for 10 days by HPLC-PDA method relative to initial purity; format: physicochemical; details: time 10 day; for Stability: 240 h
[13] = Cmax in Balb/c mouse at 5 mg/kg, iv measured upto 24 hrs by LC/MS/MS analysis; format: ADME, organism-based; design: dose 5 mg/kg, time < 24 hrs, route iv; details: in vivo
[14] = Apparent permeability across apical to basolateral side in human Caco-2 cells incubated for 21 days; format: ADME, cell-based; details: time 21 day
[15] = Chemical stability of the compound under 4500 +/- 500 lx light condition by measuring compound purity incubated for 10 days by HPLC-PDA method relative to initial purity; format: physicochemical; details: time 10 day; for Stability: 240 h
[16] = AUC (0 to infinity) in Sprague-Dawley rat at 50 mg/kg, po measured upto 24 hrs by LC/MS/MS analysis; format: ADME, organism-based; design: time < 24 hrs, dose 50 mg/kg, route po; details: in vivo
[17] = Elimination half life in Sprague-Dawley rat at 5 mg/kg, iv measured upto 24 hrs by LC/MS/MS analysis; format: ADME, organism-based; details: in vivo, read-out: beta t1/2 (converted)
[18] = AUC (0 to t) in Sprague-Dawley rat at 50 mg/kg, po measured upto 24 hrs by LC/MS/MS analysis; format: ADME, organism-based; design: dose 50 mg/kg, time < 24 hrs, route po; details: in vivo
[19] = AUC (0 to t) in Sprague-Dawley rat at 5 mg/kg, iv measured upto 24 hrs by LC/MS/MS analysis; format: ADME, organism-based; design: time < 24 hrs, dose 5 mg/kg, route iv; details: in vivo
[20] = system: Mycobacterium tuberculosis; test: Antibacterial activity against Mycobacterium tuberculosis H37Rv BALB/c mouse model assessed as reduction in CFU in lungs at 12.5 mg/kg via oral gavage for 30 days (reference value: 5.35 +/-0.17); format: functional; details: time 30 day
[21] = Cmax in Sprague-Dawley rat at 5 mg/kg, iv measured upto 24 hrs by LC/MS/MS analysis; format: ADME, organism-based; design: time < 24 hrs, dose 5 mg/kg, route iv; details: in vivo
[22] = Clearance in Sprague-Dawley rat at 5 mg/kg, iv measured upto 24 hrs by LC/MS/MS analysis; format: ADME, organism-based; details: in vivo
[23] = Lipophilicity, log D of the compound in octanol/water at pH 6.8 incubated for 72 hrs under shaking condition by shake flask based HPLC-PDA method; format: physicochemical; details: pH 6.8
[24] = Lipophilicity, log D of the compound in octanol/water at pH 2.0 incubated for 72 hrs under shaking condition by shake flask based HPLC-PDA method; format: physicochemical; details: pH 2
[25] = AUC (0 to infinity) in Sprague-Dawley rat at 5 mg/kg, iv measured upto 24 hrs by LC/MS/MS analysis; format: ADME, organism-based; design: time < 24 hrs, dose 5 mg/kg, route iv; details: in vivo
[26] = MRT (0 to infinity) in Sprague-Dawley rat at 50 mg/kg, po measured upto 24 hrs by LC/MS/MS analysis; format: ADME, organism-based; details: in vivo
[27] = Cmax in Sprague-Dawley rat at 50 mg/kg, po measured upto 24 hrs by LC/MS/MS analysis; format: ADME, organism-based; design: time < 24 hrs, dose 50 mg/kg, route po; details: in vivo
[28] = Lipophilicity, log P of the compound in octanol/water incubated for 72 hrs under shaking condition by shake flask based HPLC-PDA method; format: physicochemical
[29] = system: Mycobacterium tuberculosis; test: Antibacterial activity against Mycobacterium tuberculosis H37Rv BALB/c mouse model assessed as reduction in delta CFU in lungs at 25 mg/kg via oral gavage for 30 days; format: functional; details: time 30 day
[30] = system: Mycobacterium tuberculosis; test: Antibacterial activity against Mycobacterium tuberculosis H37Rv by microplate alamar blue assay; format: functional
[31] = system: Mycobacterium tuberculosis; test: Antibacterial activity against Mycobacterium tuberculosis H37Rv BALB/c mouse model assessed as reduction in delta CFU in lungs at 12.5 mg/kg via oral gavage for 30 days; format: functional; details: time 30 day
[32] = Lipophilicity, log D of the compound in octanol/water at pH 4.0 incubated for 72 hrs under shaking condition by shake flask based HPLC-PDA method; format: physicochemical; details: pH 4
[33] = Tmax in Sprague-Dawley rat at 50 mg/kg, po measured upto 24 hrs by LC/MS/MS analysis; format: ADME, organism-based; details: in vivo
[34] = system: Mycobacterium tuberculosis; test: Antibacterial activity against Mycobacterium tuberculosis H37Rv BALB/c mouse model assessed as reduction in CFU in lungs at 25 mg/kg via oral gavage for 30 days (reference value: 5.35 +/-0.17); format: functional; details: time 30 day
[35] = Oral bioavailability in Sprague-Dawley rat at 50 mg/kg measured upto 24 hrs by LC/MS/MS analysis; format: ADME, organism-based; details: in vivo
[36] = Lipophilicity, log D of the compound in octanol/water at pH 7.6 incubated for 72 hrs under shaking condition by shake flask based HPLC-PDA method; format: physicochemical; details: pH 7.6
[37] = MRT (0 to infinity) in Sprague-Dawley rat at 5 mg/kg, iv measured upto 24 hrs by LC/MS/MS analysis; format: ADME, organism-based; details: in vivo
[38] = Elimination half life in Sprague-Dawley rat at 50 mg/kg, po measured upto 24 hrs by LC/MS/MS analysis; format: ADME, organism-based; details: in vivo, read-out: beta t1/2 (converted)

SMILES: O=C(O)CC(O)(CC(=O)O)C(=O)O.O=c1cc(N2CCN(CC3CCCCC3)CC2)sc2c([N+](=O)[O-])cc(C(F)(F)F)cc12
- half-life [1]: 371 min
- AUC(0-t) at 24 h [2]: 4440 ng·h/mL
- Papp B→A [3]: 0.33 ×10⁻⁶ cm/s
- solubility [4]: 143 µg/mL
- bioavailability [5]: 19.4%
- Tmax [6]: 0.5 h
- AUC(0-t) at 24 h [7]: 2360 ng·h/mL
- Cmax [8]: 536 ng/mL
- Stability [9]: 99.6%
- efflux ratio [10]: 0.13
- half-life [11]: 400 min
- Stability [12]: 99.4%
- Cmax [13]: 3780 ng/mL
- Papp A→B [14]: 2.52 ×10⁻⁶ cm/s
- Stability [15]: 91.3%

SMILES: O=C(O)/C=C\C(=O)O.O=c1cc(N2CCN(CC3CCCCC3)CC2)sc2c([N+](=O)[O-])cc(C(F)(F)F)cc12
- AUC(0-inf) [16]: 2180 ng·h/mL
- half-life [1]: 359 min
- half-life [17]: 386 min
- AUC(0-t) at 24 h [2]: 7110 ng·h/mL
- Papp B→A [3]: 0.25 ×10⁻⁶ cm/s
- AUC(0-t) at 24 h [18]: 2130 ng·h/mL
- AUC(0-t) at 24 h [19]: 1710 ng·h/mL
- Activity [20]: 4.6 log10CFU
- Cmax [21]: 3880 ng/mL
- clearance [22]: 52.4 mL/min/kg
- logD at 72 h [23]: > 4.24
- solubility [4]: 114 µg/mL
- bioavailability [5]: 28%
- logD at 72 h [24]: 1.31
- Tmax [6]: 1.5 h
- AUC(0-inf) [25]: 1740 ng·h/mL
- AUC(0-t) at 24 h [7]: 2570 ng·h/mL
- Cmax [8]: 776 ng/mL
- remaining at 240 h ([9]; read-out: Stability): 100%
- MRT inf [26]: 5.91 h
- Cmax [27]: 282 ng/mL
- efflux ratio [10]: 0.1
- logP at 72 h [28]: 2.6
- Activity [29]: 3.23 log10CFU
- MIC [30]: < 0.016 µg/mL
- Activity [31]: 0.75 log10CFU
- half-life [11]: 397 min
- logD at 72 h [32]: 3.6
- Tmax [33]: 3.33 h
- Activity [34]: 2.12 log10CFU
- bioavailability [35]: 12.5%
- logD at 72 h [36]: > 4.24
- remaining at 240 h ([12]; read-out: Stability): 100%
- MRT inf [37]: 2.46 h
- Cmax [13]: 3090 ng/mL
- Papp A→B [14]: 3.1 ×10⁻⁶ cm/s
- remaining at 240 h ([15]; read-out: Stability): 100%
- half-life [38]: 274 min

SMILES: O=C(O)C[C@H](O)C(=O)O.O=c1cc(N2CCN(CC3CCCCC3)CC2)sc2c([N+](=O)[O-])cc(C(F)(F)F)cc12
- half-life [1]: 360 min
- AUC(0-t) at 24 h [2]: 7280 ng·h/mL
- Papp B→A [3]: 0.28 ×10⁻⁶ cm/s
- solubility [4]: 158 µg/mL
- bioavailability [5]: 27.7%
- Tmax [6]: 1 h
- AUC(0-t) at 24 h [7]: 2730 ng·h/mL
- Cmax [8]: 979 ng/mL
- Stability [9]: 98.2%
- half-life [11]: 354 min
- Stability [12]: 98.3%
- Cmax [13]: 3950 ng/mL
- Papp A→B [14]: 7.78 ×10⁻⁶ cm/s
- Stability [15]: 90.6%

SMILES: O=C(O)CC(O)(CC(=O)O)C(=O)O.O=C(O)CC(O)(CC(=O)O)C(=O)O.O=C(O)CC(O)(CC(=O)O)C(=O)O.O=c1cc(N2CCN(CC3CCCCC3)CC2)sc2c([N+](=O)[O-])cc(C(F)(F)F)cc12.O=c1cc(N2CCN(CC3CCCCC3)CC2)sc2c([N+](=O)[O-])cc(C(F)(F)F)cc12
- Papp B→A [3]: 0.26 ×10⁻⁶ cm/s
- solubility [4]: 128 µg/mL
- efflux ratio [10]: 0.1
- Papp A→B [14]: 4.08 ×10⁻⁶ cm/s
